This is an account of results in patent publication US20090155352A1, “Microemulsion containing indolocarbazole compound and dosage forms containing the same” (Cephalon, Inc., priority 2007, published 2009).

The nature of data set [1]: AIBN forced degradation screen of antioxidants in lestaurtinib microemulsions. Type of data set: physicochemical. To be noted: AIBN screening; for antioxidant effect against oxidation of lestaurtinib microemulsion: first experiment, thirteen formulations. How it is done:
Various antioxidants were evaluated for their effectiveness in relation to the composition of the invention. In an initial experiment, capsules containing a lestaurtinib composition prepared according to the invention were placed on accelerated stability conditions. Several impurities were determined (LC-MS) to be related to the oxidation of lestaurtinib. Subsequently, a forced degradation experiment was performed using the radical initiator azoisobutyronitrile (AIBN) adapted for use with lestaurtinib. This was based on the fact that AIBN radical initiates the autoxidation mechanism that the majority of active ingredients follow for oxidation.
Using AIBN as a screening tool, a series of microemulsions prepared in accordance with the invention were formulated using different antioxidants to identify suitable solutions for preventing degradation of the composition. The first experiment used thirteen formulations using several classes of antioxidants (i.e., oxygen scavengers, sacrificial antioxidants and H-atom donors) to determine which reaction pathway was critical for disrupting the oxidation process. From this first experiment, several antioxidants were identified as efficacious: ascorbic acid, vitamin E, BHA and BHT.
A second experiment was then performed based on the information obtained from the first experiment. The second experiment evaluated combinations of antioxidants from different classes, different isomers of the same antioxidants, and mixtures of water-soluble and oil-soluble antioxidants.

The nature of data set [2]: Water solubility of lestaurtinib. Type of data set: physicochemical. Conditions: at 22° C.
A short description of data set [3]: Solubilized concentration of lestaurtinib in microemulsion formed with added water. On the procedure:
In one embodiment, microemulsions containing solubilized indolocarbazole compounds, e.g., lestaurtinib, can be prepared using the hydrophilic component and water in the excipient composition but without the presence of the surfactant, e.g., MYRJ®. In one example, a composition without surfactant was prepared as follows. Lestaurtinib 120 mg was weighed into a glass vial and 2 mL of molten PEG-1450 was added.

A short description of data set [4]: Maximum solubility of lestaurtinib in prior solid state solution / SEDDS formulations. To be noted: vehicle 25% PEG 400, 25% PEG 1000, 50% MYRJ 52, no added water.
Excerpt: This formulation was a self-emulsifying drug delivery system (SEDDS) comprised of a blend of polyoxyethylene glycols (PEGs) and MYRJ® 52 (polyoxyethylene 40 stearate surfactant available from Croda N.A., Parsippany, N.J.).
Setting [5] is: microemulsion with water addition.

In brackets after ≈: the same amount, converted by molar mass.

With `COc1ccc(O)c(C(C)(C)C)c1` [BHA, butylhydroxyanisole], the “antioxidant effect against oxidation of lestaurtinib microemulsion” value (shortened to “antioxidant effect against oxidation”) in data set [1] is on record as “efficacious”.

Regarding `O=C1O[C@H]([C@@H](O)CO)C(O)=C1O` [ascorbic acid], the “antioxidant effect against oxidation” value in data set [1] was “efficacious”.

Molecule `C[C@]12O[C@H](C[C@]1(O)CO)n1c3ccccc3c3c4c(c5c6ccccc6n2c5c31)CNC4=O` [lestaurtinib, [9S-(9α,10β,12α)]-2,3,9,10,11,12-hexahydro-10-hydroxy-10-(hydroxymethyl)-9-methyl-9,12-epoxy-1H-diindolo[1,2,3-fg:3′,2′,1′-kl]pyrrolo[3,4-i][1,6]benzodiazocin-1-one] displayed a solubility in data set [2] of 1.7 µg/mL (≈ 3.87 µM). The “final concentration of lestaurtinib in clear solution” value in data set [3] (Example 13, PEG-1450 and water, without surfactant, by HPLC) stood at 59.2 mg/mL. Besides, in data set [3] (setting [5]), the “solubilized concentration achieved using the invention” value is 87 mg/g and the “solubilized concentration achieved using the invention (total composition weight)” value was “about 9%”. In addition, the “maximum solubility obtainable in SEDDS formulation” value in data set [4] is reported as “about 29 mg/g”.

On to `O=S([O-])S(=O)(=O)[O-].[K+].[K+]` [potassium metabisulfite], for which, in data set [1] (second experiment), the “effect on impurity levels in final formulation” value was “decreased the overall impurity levels”.

Take vitamin E: the “antioxidant effect against oxidation” value in data set [1] was “efficacious”.

Broadly, the solubility is the dissolved amount per volume that the medium holds. Higher therefore signals much dissolved substance.
